Reference: patent publication US20240358846A1, “Nanoparticles and Peptides for the Delivery of Cargos to Muscle Cells” (4BASEBIO, S.L.U., priority 2021, published 2024)

What was measured:
C2C12 cells [1] = experiment: GFP expression in C2C12 cells transfected with mRNA:lipid:peptide nanoparticles; assay type: cell-based, mouse; conditions: mRNA:lipid:peptide 1:5:2.5, DOTMA/DOPE 2:1 with 10% cholesterol, 500 ng/well, 4 h, FIG. 16
Protocol: Shown in FIG. 16 is GFP expression in C2C12 cells transfected with mRNA derived from linearised plasmid encapsulated in lipid-peptide nanoparticles.
(§1) Nanoparticles were formulated manually by pipetting following a mass ratios of 1:5:2.5 (mRNA:lipid:peptide). Firstly, the components mRNA, lipid and peptide were suspended in Ultra pure water in volumes of 60 ul, 60 ul and 80 ul, respectively. Components were mixed following the order-lipid to peptide, mRNA to lipid+peptide mix. Nanoparticles were allowed to incubate for 30 minutes at room temperature. All samples were diluted in serum-free media before transferring them onto cells. C2C12 cells were transfected with 500 ng/well of mRNA nanoparticles. The microplate was centrifuged at 12000 rpm for 5 minutes and incubated at 37 C for 4 hours. After 4 hours, cells were trypsinised and prepared for FAQs.

C2C12 cells [2] = experiment: GFP expression in C2C12 cells transfected with pDNA:lipid:peptide nanoparticles (flow cytometry, microscopy); assay type: cell-based, mouse; conditions: 48 h; for cells expressing GFP (GFP expression level, transfection efficiency): pDNA:lipid:peptide nanoparticles, different targeting sequences, FIG. 2; for cells expressing GFP (GFP expression level, transfection efficiency) / GFP transfection efficiency: DD 2:1 with 20% cholesterol; for GFP transfection efficiency: pDNA:lipid:peptide, MD2 in different conformations, FIG. 4
Protocol: C2C12 cells, an immortalised mouse myoblast line, were cultured in Dulbecco's Modified Eagle's Medium (DMEM, Gibco) containing 10% fetal bovine serum (FBS, Gibco) and 1% pen/strep (Gibco).
Transfections in C2C12 cells were performed with a range of peptide:liposome:nucleic acid cargo ratios. Transfections were performed in a 96-well plate at a density of 8,000 cells per well seeded 24 h previously. Charge and mass ratio of components in the transfection complex varied; DNA was maintained at a constant mass of 300 ng per well, while lipid component was altered. In one case, the molar ratio of the cationic lipid C18 to the phospholipid DOPE was kept at 1:1 (DD). In another case, the molar ratio of the cationic lipid C18 to the phospholipid DOPE was kept at 2:1 (DD 2:1), while cholesterol was added at a molar percentage of 10 or 20% of the total lipid content. The mass ratio of linear DNA:liposome:peptide was maintained at 1:3:3, while the muscle-cell binding peptides were in some cases altered.
(§2) Transfection complexes were formed via electrostatic interaction by vigorous pipetting, before diluting in a final volume of 200 μl per well, with a DNA concentration of 1.5 ng/μl. All dilutions were performed with OptiMEM reduced serum media. Controls included cells with no transfection complexes added (OptiMEM only).
Transfection complexes were incubated for 30 min at RT before adding to cells. All conditions were performed in triplicate. Cells were incubated at 37° C. for 4 hours, before replacing media with growth media. 48 h post-transfection, the cells were rinsed in PBS, before incubation in 0.05% Trypsin EDTA (Gibco) to detach the cells. Cells were then re-suspended in PBS for analysis by flow cytometry.

[3] = Size and PDI of miRNA-lipid-peptide complexes, hand-mixing vs microfluidics (DLS); assay type: physicochemical; conditions: FIG. 23; for size of complexes: C18/DOPE 2:1 with 10% cholesterol
Description: Shown in FIG. 23 is size and polydispersity index (PDI) of miDNA-lipid-peptide complexes formulated through two different methods: hand-mixing—where complexes are formed by vigorous pipetting using a micropipette; or through a microfluidics platform. The lipid components comprised of C18/DOPE at a molar ratio of 2:1 with 10% cholesterol. The final formulation was following a mass ratio of 1:5 closed linear DNA:liposomes with N/P ratio of 6 driven by the peptide C1L-N-16-K16GAAPWHLSSQYSRT (SEQ ID NO: 49).
The hand-mixed complexes were formed by firstly suspending each of the components in ultra pure water, with the following mixing order-liposomes to peptide, closed linear DNA to liposomes+peptide complexes. Nanoparticles were allowed to incubate for 30 minutes at room temperature prior to a further dilution in water required for biophysical charaterisation by a DLS system (Zetasizer Ultra-Malvern).
For complexes formed through a microfluidics device (Nanoassemblr Ignite-Precision Nanosystems), lipid components were suspended in 99% pure ethanol at identical ratios to hand-mixed particles. Lipid components in ethanol were loaded onto the instrument along with miRNA and peptide C1L, both suspended in water. A flow rate ratio (FRR) of 1:3 of miRNA to lipid was mixed together at a total flow rate (TFR) of 12 mL/min prior to the addition of the peptide (FRR of 1:1, TFR 12 mL/min). The complexes formulated using the Nanoassemblr we then dialysed for 4 h using a Slide-a-Lyzer dialysis cassette (ThermoFisher) to remove residual ethanol.

H9C2 cells = experiment: GFP expression in H9C2 cells transfected with nucleic acid-lipid-peptide nanoparticles (flow cytometry); assay type: cell-based, rat; conditions: 300 ng/well; for cells GFP positive (transfection efficiency): 48 h post-transfection; for GFP positive cells (transfection efficiency): mRNA in lipid-peptide nanoparticles, 4 h post transfection, FIG. 13
Protocol: H9C2 cells, an immortalised cell line derived from embryonic rate heart tissue were cultured in Dulbecco's Modified Eagle's Medium (DMEM, Gibco) containing 10% fetal bovine serum (FBS, Gibco) and 1% pen/strep (Gibco).
Transfections in H9C2 cells were performed with a range of peptide:liposome:nucleic acid cargo ratios. Transfections were performed in a 96-well plate at a density of 8,000 cells per well seeded 24 h previously. Closed linear DNA/mRNA was maintained at a constant mass of 300 ng per well, while peptide component was altered. The molar ratio of the cationic lipid C18 to the phospholipid DOPE was kept at 2:1 (DD 2:1), while cholesterol was added at a molar percentage of 10% of the total lipid content. The mass ratio of closed linear DNA/mRNA:liposome:peptide was maintained at 1:5:2.52.
as §2, with “ul” for “μl”, “ng/ul.” for “ng/μl.”, “only), complexes targeting a different cell, or complexes with no targeting sequence component.” for “only).”
Transfection complexes were incubated for 30 min at RT before adding to cells. All conditions were performed in triplicate. Cells were incubated at 37° C. for 4 hours, before replacing media with growth media.
In the case of mRNA, 4 h post-transfection, the cells were rinsed in PBS, before incubation in 0.05% Trypsin EDTA (Gibco) to detach the cells. Cells were then resuspended in PBS for analysis by flow cytometry. In the case of closed linear DNA, 48 h post-transfection, the cells were rinsed in PBS, before incubation in 0.05% Trypsin EDTA (Gibco) to detach the cells. Cells were then resuspended in PBS for analysis by flow cytometry.

[4] = Biophysical characterisation of DNA-lipid-peptide nanoparticle (DLS, ELS, MADLS); assay type: physicochemical
Protocol: The size in nm by Dynamic Light Scattering (DLS), zeta potential in mV by Electrophoretic Light Scattering (ELS), and concentration of particles per ml by Multi-Angle Dynamic Light Scattering (MADLS) of the hpDNA-lipid-peptide nanoparticles was determined using the Zetasizer Ultra (Malvern). Complexes were prepared as before, except formulated in nuclease-free water rather than Opti-MEM. Samples containing 0.7 μg plasmid were diluted in 1 ml for analysis.

HEK293 cells [5] = experiment: GFP expression in HEK293 cells transfected with plasmid DNA-peptide complexes or DNA-lipid-peptide nanoparticles; assay type: cell-based; conditions: particles formed using DNA and peptide only, 48 h, FIG. 5
Protocol: GFP expression was imaged 48 h post transfection. n=3 in all experiments, error bars=S.D.
The high expression in C2C12 compared with HEK293 cells is particularly impressive owing to the high transfection efficiency achievable in HEK293 cells.

HEK293 cells [6] = experiment: In-vitro transfection efficiency in HEK293 cells of closed linear DNA nanoparticles stored at +4° C. (luciferase assay); assay type: cell-based; conditions: 300 ng closed linear DNA nanoparticles stored up to 40 weeks at +4° C., tested every 5 weeks, FIG. 22B
Protocol: Nanoparticles were transfected in HEK293 cells at 5 week intervals. GFP expression was measured 48 h post transfection. n=3 in all experiments.
Shown in FIG. 22B is relative luminescence units per microgram of protein (RLU/mg of protein) of HEK293 cells transfected with closed linear DNA nanoparticles stored for 40 weeks at +4° C. […] Cells were transfected with 300 ng of closed linear DNA nanoparticles every 5 weeks.

[7] = Size and polydispersity index of closed linear DNA-lipid-peptide nanoparticles by DLS (FIG. 15); assay type: physicochemical; conditions: C18/CHOL/DOPE (58/10/32)
Protocol: Dynamic Light Scattering (DLS) measurements were conducted using Zetasizer Ultra (Malvern Panalytical). Each bar represents average value of three measurements (n=3). Complexes were prepared as before, except formulated in nuclease-free water rather than Opti-MEM. Samples containing 0.7 μg closed linear DNA were diluted in 1 ml for analysis. Particles ranged from 37 nm (MD2L) to 57 nm (MD2CC), with PDI values ranging from 0.12 to 0.28. Liposomes encapsulating closed linear DNA with no targeting ligand were used as a control, with a larger size of 70 nm and PDI of 0.13.

C2C12 cells [8] = experiment: GFP expression in C2C12 cells transfected with closed linear DNA:lipid:peptide nanoparticles; assay type: cell-based, mouse; conditions: DOTMA/DOPE 2:1 with 10% cholesterol, 300 ng/well, 48 h, FIG. 20
Protocol: GFP expression was measured 48 h post transfection. n=3 in all experiments, error bars=S.D. Nanoparticles containing no peptide were used as a control. […] Nanoparticles containing no peptide in their formulation lead to a transfection efficiency of 12% indicating the lowest transfection efficiency in treated cells.
as §1, with “1:3:2.1.6 (closed linear DNA:lipid:peptide).” for “1:5:2.5 (mRNA:lipid:peptide).”, “closed linear DNA,” for “components mRNA,”, “closed linear DNA” for “mRNA”, “300” for “500”, “closed linear DNA.” for “mRNA nanoparticles.”, “Flow Cytometry analysis.” for “FAQs.”

[9] = Size and PDI of mRNA:lipid:peptide nanoparticles (FIG. 19); assay type: physicochemical; conditions: DOTMA/DOPE 2:1 with 10% cholesterol
Description: Table presented in FIG. 19 presents size (nm) and polydispersity index (PDI) values for the mRNA:lipid:peptide nanoparticles. Sizes of fully formed nanoparticles range from 31 nm for MD2, to 37 nm for MD3 while nanoparticles formulated without a peptide are 61 nm. PDI value is low across all samples which translates into low polydispersity of the nanoparticle population.

[10] = plasmid DNA-lipid-peptide nanoparticles, FIG. 10
[11] = closed linear DNA-lipid-peptide nanoparticles, FIG. 11

ASSLNIA [MD1]
cells expressing GFP (transfection efficiency) (C2C12 cells [1]): 73%
cells expressing GFP (GFP expression level, transfection efficiency) (C2C12 cells [2]; C2C12): 73%

KKKKKKKKKKKKKKKKGAAPWHLSSQYSRT [C1L-N-16]
size of complexes ([3]; hand-mixed): 60 nm
size of complexes ([3]; microfluidics): 40 nm
PDI ([3]; hand-mixed): 0.23
PDI ([3]; microfluidics): 0.16

KKKKKKKKKKKKKKKKGAASSLNIA [MD1L]
cells GFP positive (transfection efficiency) (H9C2 cells; [10]): 20%

KKKKKKKKKKKKKKKKGACRRQPPRSISSHPC [MD2C]
cells GFP positive (transfection efficiency) (H9C2 cells; [11]): 6%
cells GFP positive (transfection efficiency) (H9C2 cells; [10]): 26%
size of the particle (DLS) ([4]; DNA-lipid-peptide nanoparticle, C18 (DOTMA) DOPE 10% cholesterol, FIG. 6A): 89.4 nm
zeta potential (ELS) ([4]; DNA-lipid-peptide nanoparticle, C18 (DOTMA) DOPE 10% cholesterol, FIG. 6B): 24.8 mV
particle titre (MADLS) ([4]; accounting for the 1 in 100 dilution, FIG. 6E, F): 10 E12 particles per ml
GFP expression visualised by microscopy (HEK293 cells [5]): No GFP expression
GFP transfection efficiency (C2C12 cells [2]; C2C12): 30.08%
GFP expression visualised by microscopy (C2C12 cells [2]; C2C12, particles formed using DNA and peptide only, FIG. 5): some GFP expression
GFP expression, C2C12 compared to HEK293 cells (specificity) (C2C12 cells [2]; fully formed nanoparticle with lipid DD with 10% cholesterol, FIG. 5): much higher in C2C12 cells as compared to HEK293 cells

KKKKKKKKKKKKKKKKGARRQPPRSISSHP [MD2L]
transfection efficiency after storage (luminescence signal, luciferase assay) (HEK293 cells [6]): sustained luminescence signal across all time points
size (DLS) [7]: 37 nm
GFP positive cells (transfection efficiency) (H9C2 cells): 33%
cells GFP positive (transfection efficiency) (H9C2 cells; [10]): 27%
GFP transfection efficiency (C2C12 cells [2]; C2C12): 8.24%

KKKKKKKKKKKKKKKKGAWLSEAGPVVTVRALRGTGSW [C2L-N-16]
GFP positive cells (transfection efficiency) (H9C2 cells): 26%

KKKKKKKKKKKKKKKKKKKKKKKKKKKKKKGACRRQPPRSISSHPC [MD2C-K30, targeting peptide named MD2C-K30]
cells GFP positive (transfection efficiency) (H9C2 cells; [11]): 5%

KKKKKKKKKKKKKKKKRVRRGACASSLNIAC [MD1CC]
cells expressing GFP (transfection efficiency) (C2C12 cells [8]): 29%

KKKKKKKKKKKKKKKKRVRRGACRRQPPRSISSHPC [MD2CC]
size (DLS) [7]: 57 nm
GFP transfection efficiency (C2C12 cells [2]; C2C12): 50.06%

KKKKKKKKKKKKKKKKRVRRGACSKTFNTHPQSTPC [MD3CC]
cells expressing GFP (transfection efficiency) (C2C12 cells [8]): 25%

RRQPPRSISSHP [MD2]
size [9]: 31 nm
cells expressing GFP (transfection efficiency) (C2C12 cells [1]): 59%
cells expressing GFP (GFP expression level, transfection efficiency) (C2C12 cells [2]; C2C12): 50.1%

SKTFNTHPQSTP [MD3]
size [9]: 37 nm
cells expressing GFP (transfection efficiency) (C2C12 cells [1]): 72%
cells expressing GFP (GFP expression level, transfection efficiency) (C2C12 cells [2]; C2C12): 22.68%
